#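 Growth conditions: 96-well plates. Treatment: test compound, 48 hours, 5 concentrations. Analysis: linear interpolation between bracketing concentrations; unreached endpoints set to highest concentration. TGI: total growth inhibition.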
# Columns and labels:
# Test in all cases: inhibition of tumour cell growth, NCI panel, 48 h
# A498 renal = tested on: A498 renal
# A549 NSCLC = tested on: A549 NSCLC
# ACHN renal = tested on: ACHN renal
# BT-549 breast = tested on: BT-549 breast
# CAKI-1 renal = tested on: CAKI-1 renal
# CCRF-CEM leukemia = tested on: CCRF-CEM leukemia
# COLO 205 colon = tested on: COLO 205 colon
# DU-145 prostate = tested on: DU-145 prostate
# EKVX NSCLC = tested on: EKVX NSCLC
# HCC-2998 colon = tested on: HCC-2998 colon
# HCT-116 colon = tested on: HCT-116 colon
# HCT-15 colon = tested on: HCT-15 colon
# HL-60(TB) leukemia = tested on: HL-60(TB) leukemia
# HOP-62 NSCLC = tested on: HOP-62 NSCLC
# HOP-92 NSCLC = tested on: HOP-92 NSCLC
# HS 578T breast = tested on: HS 578T breast
# HT29 colon = tested on: HT29 colon
# IGROV1 ovarian = tested on: IGROV1 ovarian
# K-562 leukemia = tested on: K-562 leukemia
# KM12 colon = tested on: KM12 colon
# LOX IMVI melanoma = tested on: LOX IMVI melanoma
# M14 melanoma = tested on: M14 melanoma
# MALME-3M melanoma = tested on: MALME-3M melanoma
# MCF7 breast = tested on: MCF7 breast
# MDA-MB-435 = tested on: MDA-MB-435
# MDA-N = tested on: MDA-N
# MOLT-4 leukemia = tested on: MOLT-4 leukemia
# NCI-H226 lung = tested on: NCI-H226 lung
# NCI-H23 lung = tested on: NCI-H23 lung
# NCI-H460 lung = tested on: NCI-H460 lung
# NCI-H522 lung = tested on: NCI-H522 lung
# OVCAR-3 ovarian = tested on: OVCAR-3 ovarian
# OVCAR-4 ovarian = tested on: OVCAR-4 ovarian
# OVCAR-5 ovarian = tested on: OVCAR-5 ovarian
# OVCAR-8 ovarian = tested on: OVCAR-8 ovarian
# PC-3 prostate = tested on: PC-3 prostate
# RPMI-8226 leukemia = tested on: RPMI-8226 leukemia
# SF-268 CNS = tested on: SF-268 CNS
# SF-295 CNS = tested on: SF-295 CNS
# SF-539 CNS = tested on: SF-539 CNS
# SK-MEL-2 melanoma = tested on: SK-MEL-2 melanoma
# SK-MEL-28 melanoma = tested on: SK-MEL-28 melanoma
# SK-MEL-5 melanoma = tested on: SK-MEL-5 melanoma
# SK-OV-3 ovarian = tested on: SK-OV-3 ovarian
# SN12C renal = tested on: SN12C renal
# SNB-19 CNS = tested on: SNB-19 CNS
# SNB-75 CNS = tested on: SNB-75 CNS
# SR leukemia = tested on: SR leukemia
# SW-620 colon = tested on: SW-620 colon
# T-47D breast = tested on: T-47D breast
# TK-10 renal = tested on: TK-10 renal
# U251 CNS = tested on: U251 CNS
# UACC-257 melanoma = tested on: UACC-257 melanoma
# UACC-62 melanoma = tested on: UACC-62 melanoma
# UO-31 renal = tested on: UO-31 renal
# 786-0 renal = tested on: 786-0 renal
# MDA-MB-231 breast = tested on: MDA-MB-231 breast
# NCI/ADR-RES ovarian = tested on: NCI/ADR-RES ovarian
# RXF 393 renal = tested on: RXF 393 renal
structure (smiles),measurement,setting,value
O=C(Nc1cccc2ccccc12)Nn1cnnc1,TGI,A498 renal,> 100 µM
same,TGI,A549 NSCLC,> 100 µM
same,TGI,ACHN renal,> 100 µM
same,TGI,BT-549 breast,> 100 µM
same,TGI,CAKI-1 renal,> 100 µM
same,TGI,CCRF-CEM leukemia,> 100 µM
same,TGI,COLO 205 colon,> 100 µM
same,TGI,DU-145 prostate,> 100 µM
same,TGI,EKVX NSCLC,> 100 µM
same,TGI,HCC-2998 colon,> 100 µM
same,TGI,HCT-116 colon,> 100 µM
same,TGI,HCT-15 colon,> 100 µM
same,TGI,HL-60(TB) leukemia,> 100 µM
same,TGI,HOP-62 NSCLC,> 100 µM
same,TGI,HOP-92 NSCLC,> 100 µM
same,TGI,HS 578T breast,> 100 µM
same,TGI,HT29 colon,> 100 µM
same,TGI,IGROV1 ovarian,> 100 µM
same,TGI,K-562 leukemia,> 100 µM
same,TGI,KM12 colon,> 100 µM
same,TGI,LOX IMVI melanoma,> 100 µM
same,TGI,M14 melanoma,> 100 µM
same,TGI,MALME-3M melanoma,> 100 µM
same,TGI,MCF7 breast,> 100 µM
same,TGI,MDA-MB-435,> 100 µM
same,TGI,MDA-N,> 100 µM
same,TGI,MOLT-4 leukemia,> 100 µM
same,TGI,NCI-H226 lung,> 100 µM
same,TGI,NCI-H23 lung,> 100 µM
same,TGI,NCI-H460 lung,> 100 µM
same,TGI,NCI-H522 lung,> 100 µM
same,TGI,OVCAR-3 ovarian,> 100 µM
same,TGI,OVCAR-4 ovarian,> 100 µM
same,TGI,OVCAR-5 ovarian,> 100 µM
same,TGI,OVCAR-8 ovarian,> 100 µM
same,TGI,PC-3 prostate,> 100 µM
same,TGI,RPMI-8226 leukemia,> 100 µM
same,TGI,SF-268 CNS,> 100 µM
same,TGI,SF-295 CNS,> 100 µM
same,TGI,SF-539 CNS,> 100 µM
same,TGI,SK-MEL-2 melanoma,> 100 µM
same,TGI,SK-MEL-28 melanoma,> 100 µM
same,TGI,SK-MEL-5 melanoma,> 100 µM
same,TGI,SK-OV-3 ovarian,> 100 µM
same,TGI,SN12C renal,> 100 µM
same,TGI,SNB-19 CNS,> 100 µM
same,TGI,SNB-75 CNS,> 100 µM
same,TGI,SR leukemia,> 100 µM
same,TGI,SW-620 colon,> 100 µM
same,TGI,T-47D breast,> 100 µM
same,TGI,TK-10 renal,> 100 µM
same,TGI,U251 CNS,> 100 µM
same,TGI,UACC-257 melanoma,> 100 µM
same,TGI,UACC-62 melanoma,> 100 µM
same,TGI,UO-31 renal,> 100 µM
CC(C)(C)[Si](C)(C)O[C@@H](C(=O)OC1C=CCCC1)[C@@H](NC(=O)c1ccccc1)c1ccccc1 (stereo partly drawn),TGI,786-0 renal,> 100 µM
same,TGI,A498 renal,> 100 µM
same,TGI,A549 NSCLC,94.9 µM
same,TGI,ACHN renal,62.9 µM
same,TGI,BT-549 breast,> 100 µM
same,TGI,CAKI-1 renal,> 100 µM
same,TGI,CCRF-CEM leukemia,32.5 µM
same,TGI,COLO 205 colon,76.8 µM
same,TGI,DU-145 prostate,> 100 µM
same,TGI,EKVX NSCLC,> 100 µM
same,TGI,HCC-2998 colon,44.4 µM
same,TGI,HCT-116 colon,> 100 µM
same,TGI,HCT-15 colon,> 100 µM
same,TGI,HOP-62 NSCLC,> 100 µM
same,TGI,HOP-92 NSCLC,99.5 µM
same,TGI,HS 578T breast,> 100 µM
same,TGI,HT29 colon,49.5 µM
same,TGI,IGROV1 ovarian,> 100 µM
same,TGI,K-562 leukemia,37 µM
same,TGI,KM12 colon,> 100 µM
same,TGI,LOX IMVI melanoma,41.2 µM
same,TGI,MALME-3M melanoma,> 100 µM
same,TGI,MCF7 breast,59.9 µM
same,TGI,MDA-MB-231 breast,> 100 µM
same,TGI,MDA-MB-435,> 100 µM
same,TGI,MDA-N,> 100 µM
same,TGI,MOLT-4 leukemia,39.3 µM
same,TGI,NCI-H226 lung,> 100 µM
same,TGI,NCI-H23 lung,> 100 µM
same,TGI,NCI-H460 lung,42.2 µM
same,TGI,NCI-H522 lung,63.6 µM
same,TGI,NCI/ADR-RES ovarian,> 100 µM
same,TGI,OVCAR-3 ovarian,> 100 µM
same,TGI,OVCAR-4 ovarian,> 100 µM
same,TGI,OVCAR-5 ovarian,> 100 µM
same,TGI,OVCAR-8 ovarian,> 100 µM
same,TGI,PC-3 prostate,> 100 µM
same,TGI,RPMI-8226 leukemia,9.89 µM
same,TGI,RXF 393 renal,34.3 µM
same,TGI,SF-268 CNS,> 100 µM
same,TGI,SF-295 CNS,65.1 µM
same,TGI,SF-539 CNS,> 100 µM
same,TGI,SK-MEL-2 melanoma,48.6 µM
same,TGI,SK-MEL-28 melanoma,> 100 µM
same,TGI,SK-MEL-5 melanoma,37.2 µM
same,TGI,SK-OV-3 ovarian,> 100 µM
same,TGI,SN12C renal,61.3 µM
same,TGI,SNB-19 CNS,> 100 µM
same,TGI,SNB-75 CNS,> 100 µM
same,TGI,SR leukemia,37.9 µM
same,TGI,SW-620 colon,> 100 µM
same,TGI,T-47D breast,98 µM
same,TGI,TK-10 renal,> 100 µM
same,TGI,U251 CNS,> 100 µM
same,TGI,UACC-257 melanoma,> 100 µM
same,TGI,UACC-62 melanoma,> 100 µM
same,TGI,UO-31 renal,> 100 µM
N#C/C(=C\c1cn(Cc2ccccc2)c2ccccc12)c1nn(-c2ccccc2)c(N)c1C#N,TGI,786-0 renal,21.3 µM
same,TGI,A498 renal,59.3 µM
same,TGI,A549 NSCLC,24.6 µM
same,TGI,ACHN renal,75.6 µM
same,TGI,BT-549 breast,58.3 µM
same,TGI,CAKI-1 renal,47 µM
same,TGI,CCRF-CEM leukemia,47.8 µM
same,TGI,COLO 205 colon,56.2 µM
same,TGI,DU-145 prostate,32.2 µM
same,TGI,EKVX NSCLC,27.5 µM
same,TGI,HCT-116 colon,> 100 µM
same,TGI,HCT-15 colon,> 100 µM
same,TGI,HL-60(TB) leukemia,> 100 µM
same,TGI,HOP-92 NSCLC,27.2 µM
same,TGI,HS 578T breast,> 100 µM
same,TGI,HT29 colon,27.3 µM
same,TGI,IGROV1 ovarian,30.7 µM
same,TGI,K-562 leukemia,> 100 µM
same,TGI,KM12 colon,> 100 µM
same,TGI,LOX IMVI melanoma,> 100 µM
same,TGI,M14 melanoma,46.1 µM
same,TGI,MALME-3M melanoma,47.4 µM
same,TGI,MCF7 breast,> 100 µM
same,TGI,MDA-MB-231 breast,14.2 µM
same,TGI,MDA-MB-435,74.6 µM
same,TGI,MDA-N,88.1 µM
same,TGI,MOLT-4 leukemia,> 100 µM
same,TGI,NCI-H23 lung,29.7 µM
same,TGI,NCI-H460 lung,25.9 µM
same,TGI,NCI-H522 lung,34.7 µM
same,TGI,NCI/ADR-RES ovarian,49 µM
same,TGI,OVCAR-3 ovarian,33.7 µM
same,TGI,OVCAR-4 ovarian,13.7 µM
same,TGI,OVCAR-5 ovarian,51.5 µM
same,TGI,OVCAR-8 ovarian,21.9 µM
same,TGI,PC-3 prostate,19.8 µM
same,TGI,RPMI-8226 leukemia,> 100 µM
same,TGI,RXF 393 renal,19.2 µM
same,TGI,SF-268 CNS,91.7 µM
same,TGI,SF-295 CNS,26.4 µM
same,TGI,SF-539 CNS,7.22 µM
same,TGI,SK-MEL-2 melanoma,16.9 µM
same,TGI,SK-MEL-28 melanoma,> 100 µM
same,TGI,SK-MEL-5 melanoma,23.6 µM
same,TGI,SK-OV-3 ovarian,40 µM
same,TGI,SN12C renal,38.7 µM
same,TGI,SNB-19 CNS,28.8 µM
same,TGI,SNB-75 CNS,15.3 µM
same,TGI,SR leukemia,> 100 µM
same,TGI,SW-620 colon,36.3 µM
same,TGI,T-47D breast,23.3 µM
same,TGI,TK-10 renal,35.8 µM
same,TGI,U251 CNS,26.5 µM
same,TGI,UACC-257 melanoma,50 µM
same,TGI,UACC-62 melanoma,23.6 µM
same,TGI,UO-31 renal,26.5 µM
